Source: patent US7691901B2, “Carotenoid analogs or derivatives for the inhibition and amelioration of inflammation” (Cardax Pharmaceuticals Inc., priority 2004, dated 2010)

Experiments:
[1] = tested on: ischemia-reperfusion injury; experiment: Ischemia-reperfusion injury, experimental infarction model; type: in vivo, rodents; settings: intravenous pretreatment
[2] = tested on: differential cell counts (macrophages, monocytes, eosinophils, lymphocytes, neutrophils, and erythrocytes); experiment: Thioglycollate/Zymosan-induced peritonitis model: differential cell counts of peritoneal lavage cells; type: in vivo, mice; set-up: RBC, MEAN / RBC, MEDIAN / WBC, MEAN / WBC, MEDIAN: unit not given here
Method: Thioglycollate/Zymosan—Induced Peritonitis Model: Wild-type mice were administered either 500 mg/kg body weight of disodium disuccinate astaxanthin (ddAst/Cardax™) in an oil emulsion vehicle, or normal saline (NS) as a negative control, by oral gavage at 24 hours intervals beginning 7 days prior to the induction of peritonitis. Peritonitis was induced experimentally as follows: mice were injected intraperitoneally with 1 ml of 4% by weight thioglycollate (Tg) broth, to induce the recruitment of proinflammatory cells to the peritoneum. Either 16 hours or 72 hours after recruitment, approximately half of the mice were injected intraperitoneally with 250 mg/kg body weight of zymosan (Z) for a further 4 hours. The mice not receiving zymosan underwent no further treatment. Peritoneal lavage was performed in control animals or animals treated with (ddAst) 16 hours post Tg injection, or 20 h following the combination of both Tg injection (16 hours) followed by Z injection (4 hours), as indicated (Tg/Z). Peritoneal lavages were performed with phosphate-buffered saline containing antioxidant (0.1 mM butylated hydroxytoluene (BHT)) and 2 mM of the metal chelator diethylenetriamine pentaacetic acid (DTPA) according to established practices in the art. The lavage suspensions were transferred to screw-capped tubes under an argon atmosphere, and immediately centrifuged at 1000 rpm in a table top microcentrifuge for 10 min at 4° C. to remove whole cells and debris. All analyses of lipid peroxidation products was performed on cell-free lavage supernatants. Cell pellets were resuspended in phosphate-buffered saline containing 0.1 mM BHT and 0.1 mM DTPA, and differential cell counts (macrophages, monocytes, eosinophils, lymphocytes, neutrophils, and erythrocytes) were performed on cytospun preparations of isolated cells according to established procedures in the art.

[3] = type: physicochemical
Method: Determination of aqueous solubility/dispersibility. 30.13 mg of 3 was added to 1 mL of USP-purified water. The sample was rotated for 2 hours, then centrifuged for 5 minutes. […] A 125-μL aliquot of the solution was then diluted to 25 mL. The sample was analyzed by UV/Vis spectroscopy at 436 nm, and the absorbance was compared to a standard curve compiled from 4 standards of known concentration.
The sample was rotated for 2 hours, then centrifuged for 5 minutes. […] A 125-μL aliquot of the solution was then diluted to 25 mL. The sample was analyzed by UV/Vis spectroscopy at 411 nm, and the absorbance was compared to a standard curve compiled from 4 standards of known concentration.

SMILES: CC1=C(/C=C/C(C)=C/C=C/C(C)=C/C=C/C=C(C)/C=C/C=C(C)/C=C/C2=C(C)C(=O)C(OC(=O)CCC(=O)O)CC2(C)C)C(C)(C)CC(OC(=O)CCC(=O)O)C1=O (stereo not shown) [Cardax, disodium disuccinate astaxanthin]
- cardioprotection [1]: significantly cardioprotective
- myocardial salvage ([1]; highest dose tested): up to 56%
- ALV MAC %, MEAN ([2]; 16 Hour Thioglycollate): 3.000%
- EOSIN %, MEAN ([2]; 16 Hour Thioglycollate): 6.000%
- LYMPHS %, MEAN ([2]; 16 Hour Thioglycollate): 23.000%
- MONOS %, MEAN ([2]; 16 Hour Thioglycollate): 39.667%
- NEUTRO %, MEAN ([2]; 16 Hour Thioglycollate): 25.333%
- OTHER %, MEAN ([2]; 16 Hour Thioglycollate): 2.667%
- RBC, MEAN ([2]; 16 Hour Thioglycollate): 449.33
- REACTIVE %, MEAN ([2]; 16 Hour Thioglycollate): 0.333%
- RES EP %, MEAN ([2]; 16 Hour Thioglycollate): 0.000%
- WBC, MEAN ([2]; 16 Hour Thioglycollate): 528.67
- ALV MAC %, MEDIAN ([2]; 16 Hour Thioglycollate): 3.000%
- EOSIN %, MEDIAN ([2]; 16 Hour Thioglycollate): 4.000%
- LYMPHS %, MEDIAN ([2]; 16 Hour Thioglycollate): 19.000%
- MONOS %, MEDIAN ([2]; 16 Hour Thioglycollate): 35.000%
- NEUTRO %, MEDIAN ([2]; 16 Hour Thioglycollate): 21.000%
- OTHER %, MEDIAN ([2]; 16 Hour Thioglycollate): 2.000%
- RBC, MEDIAN ([2]; 16 Hour Thioglycollate): 350.00
- REACTIVE %, MEDIAN ([2]; 16 Hour Thioglycollate): 0.000%
- RES EP %, MEDIAN ([2]; 16 Hour Thioglycollate): 0.000%
- WBC, MEDIAN ([2]; 16 Hour Thioglycollate): 475.00
- ALV MAC %, MEAN ([2]; 72 Hour Thioglycollate): 15.667%
- EOSIN %, MEAN ([2]; 72 Hour Thioglycollate): 1.667%
- LYMPHS %, MEAN ([2]; 72 Hour Thioglycollate): 53.000%
- MONOS %, MEAN ([2]; 72 Hour Thioglycollate): 27.000%
- NEUTRO %, MEAN ([2]; 72 Hour Thioglycollate): 0.000%
- OTHER %, MEAN ([2]; 72 Hour Thioglycollate): 2.333%
- RBC, MEAN ([2]; 72 Hour Thioglycollate): 90.333
- REACTIVE %, MEAN ([2]; 72 Hour Thioglycollate): 0.333%
- RES EP %, MEAN ([2]; 72 Hour Thioglycollate): 0.000%
- WBC, MEAN ([2]; 72 Hour Thioglycollate): 435.33
- ALV MAC %, MEDIAN ([2]; 72 Hour Thioglycollate): 15.000%
- EOSIN %, MEDIAN ([2]; 72 Hour Thioglycollate): 1.000%
- LYMPHS %, MEDIAN ([2]; 72 Hour Thioglycollate): 55.000%
- MONOS %, MEDIAN ([2]; 72 Hour Thioglycollate): 32.000%
- NEUTRO %, MEDIAN ([2]; 72 Hour Thioglycollate): 0.000%
- OTHER %, MEDIAN ([2]; 72 Hour Thioglycollate): 2.000%
- RBC, MEDIAN ([2]; 72 Hour Thioglycollate): 69.000
- REACTIVE %, MEDIAN ([2]; 72 Hour Thioglycollate): 0.000%
- RES EP %, MEDIAN ([2]; 72 Hour Thioglycollate): 0.000%
- WBC, MEDIAN ([2]; 72 Hour Thioglycollate): 448.00
- water dispersibility [3]: 8.64 mg/mL
